Our source for the IC50 values is PMC8465095, “Secondary Metabolites with α-Glucosidase Inhibitory Activity from Mangrove Endophytic Fungus Talaromyces sp. CY-3” (Marine Drugs, 2021).

This assay has as its target α-glucosidase (Saccharomyces cerevisiae, UniProt P53341). The assay can be described thus: biochemical.
Setting [1] is: read-out: α-glucosidase inhibitory activity IC50.
[2] abbreviates: positive control 1-deoxynojirimycin, DMSO blank, read-out: α-glucosidase inhibitory activity IC50.

Read-outs that look alike come from different tables or passages of the source.

Chain of α-glucosidase (P53341 whole entry): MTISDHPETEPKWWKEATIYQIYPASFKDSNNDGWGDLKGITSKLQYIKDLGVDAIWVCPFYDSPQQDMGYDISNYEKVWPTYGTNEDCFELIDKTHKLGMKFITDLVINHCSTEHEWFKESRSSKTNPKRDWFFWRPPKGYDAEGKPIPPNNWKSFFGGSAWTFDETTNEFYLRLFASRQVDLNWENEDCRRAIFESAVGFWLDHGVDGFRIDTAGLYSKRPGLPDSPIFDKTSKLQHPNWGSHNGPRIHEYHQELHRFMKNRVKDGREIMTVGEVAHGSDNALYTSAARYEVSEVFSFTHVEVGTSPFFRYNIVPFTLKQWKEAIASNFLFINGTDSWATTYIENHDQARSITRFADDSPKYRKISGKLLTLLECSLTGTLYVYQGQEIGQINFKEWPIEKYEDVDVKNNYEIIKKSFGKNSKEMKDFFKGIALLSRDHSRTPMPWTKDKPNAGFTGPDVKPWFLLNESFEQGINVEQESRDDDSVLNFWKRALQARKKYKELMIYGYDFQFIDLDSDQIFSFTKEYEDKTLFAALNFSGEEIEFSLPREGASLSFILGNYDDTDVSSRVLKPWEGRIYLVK

Consider `CCC(C)CC(C)C=C(C)C1OC(c2c(O)c(-c3ccccc3)cn(C)c2=O)CCC1C` (stereo not drawn) [Compound 1, Sambutoxin A], for which the IC50 (as a rule, the point on the concentration scale where inhibition reaches its midpoint) came out at 12.6 ± 0.9 µM. Same read-out and setting: the figure for `CCC(C)CC(C)C=C(C)C1OC(c2c(O)c(-c3ccc(O)cc3)cn(C)c2=O)CC=C1C` (stereo not drawn) [Compound 2, Sambutoxin B] is 37.4 ± 1.4 µM; for `CC[C@H](C)C[C@@H](C)/C=C(\C)[C@@H]1O[C@H](c2c(O)c(-c3ccc(O)cc3)cn(C)c2=O)CC[C@H]1C` [Compound 3, (–)-sambutoxin] it is 16.9 ± 0.6 µM. For `C/C=C/[C@@H]1[C@H]2C[C@@H](C)CC[C@@H]2C(C)=C[C@H]1C(=O)c1c(O)c(-c2ccc(O)cc2)c[nH]c1=O` [Compound 4, ilicicolin H], under setting [1], the IC50 came out at 16.5 ± 0.7 µM. The same measure, in the same setting: the figure for `C/C=C/[C@@H]1Oc2c(-c3ccccc3)c[nH]c(=O)c2[C@@H]2[C@H]1CCC[C@H]2C` [Compound 5, deoxyleporin B] is 57.3 ± 1.3 µM; for `C/C=C/[C@@H]1Oc2c(-c3ccccc3)cn(O)c(=O)c2[C@@H]2[C@H]1CCC[C@H]2C` [Compound 6, leporine B] it is above 100 µM. The same measure, in the same setting: the figure for `CCC(C)C(=O)OC1(C)C(=O)C(C)=C(OC)C1O` (stereo not drawn) [Compound 7, Talaketides A] is above 100 µM; for `COC1=CC(=O)C(C)(O)C1(O)C(C)=O` (stereo not drawn) [Compound 8, Talaketides B] it is above 100 µM; for `CCC(C)C(=O)OC1(C)C(=O)C(C)=C(OC)CC1OC` (stereo not drawn) [Compound 9, Talaketides C] it is above 100 µM. On the same count and under the same terms, the figure for `COC1=CC(=O)C(C)(O)C(O)C1C` (stereo not drawn) [Compound 10, Talaketides D] is above 100 µM. On to `COC1=CC(=O)C(C)(O)C(O)C1C` (stereo not drawn) [Compound 11, Talaketides E], for which the IC50 under setting [2] was above 100 µM.

As to `COC1=CC(=O)C(C)(O)C(O)C1C` (stereo not drawn) [Compound 12, Talaketides F], under setting [2], the IC50 is above 100 µM.
